In patent US8101774B2, “Ester derivatives and medicinal use thereof” (Japan Tobacco Inc., priority 2004, dated 2012):

Molecular target: T1, Microsomal triglyceride transfer protein (MTP) from human small intestine microsome (Homo sapiens, UniProt P55157)
T1 construct: Human small intestine microsome was dialyzed against 10 mM phosphate buffer; tissue Tissue Transforming Technologies, Inc; host or cells: human small intestine microsome
Assay: Inhibition test of interliposomal triglyceride (TG) transfer activity by MTP
Type: biochemical
Conditions: purified MTP from human small intestine microsome, 37° C., 1.5 hours
Summary of the method: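 DEAE-purified human small intestine MTP (50 μL of 20 μg/mL) incubated 1.5 hours at 37° C with ^14C-triolein donor and unlabelled acceptor SUV liposomes in pH 7.4 Tris buffer with 0.5% BSA. Donor removed on DEAE cellulose; acceptor radioactivity counted, blank-corrected against DMSO control, giving percent inhibition and IC50.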

T1 sequence (P55157 19-894): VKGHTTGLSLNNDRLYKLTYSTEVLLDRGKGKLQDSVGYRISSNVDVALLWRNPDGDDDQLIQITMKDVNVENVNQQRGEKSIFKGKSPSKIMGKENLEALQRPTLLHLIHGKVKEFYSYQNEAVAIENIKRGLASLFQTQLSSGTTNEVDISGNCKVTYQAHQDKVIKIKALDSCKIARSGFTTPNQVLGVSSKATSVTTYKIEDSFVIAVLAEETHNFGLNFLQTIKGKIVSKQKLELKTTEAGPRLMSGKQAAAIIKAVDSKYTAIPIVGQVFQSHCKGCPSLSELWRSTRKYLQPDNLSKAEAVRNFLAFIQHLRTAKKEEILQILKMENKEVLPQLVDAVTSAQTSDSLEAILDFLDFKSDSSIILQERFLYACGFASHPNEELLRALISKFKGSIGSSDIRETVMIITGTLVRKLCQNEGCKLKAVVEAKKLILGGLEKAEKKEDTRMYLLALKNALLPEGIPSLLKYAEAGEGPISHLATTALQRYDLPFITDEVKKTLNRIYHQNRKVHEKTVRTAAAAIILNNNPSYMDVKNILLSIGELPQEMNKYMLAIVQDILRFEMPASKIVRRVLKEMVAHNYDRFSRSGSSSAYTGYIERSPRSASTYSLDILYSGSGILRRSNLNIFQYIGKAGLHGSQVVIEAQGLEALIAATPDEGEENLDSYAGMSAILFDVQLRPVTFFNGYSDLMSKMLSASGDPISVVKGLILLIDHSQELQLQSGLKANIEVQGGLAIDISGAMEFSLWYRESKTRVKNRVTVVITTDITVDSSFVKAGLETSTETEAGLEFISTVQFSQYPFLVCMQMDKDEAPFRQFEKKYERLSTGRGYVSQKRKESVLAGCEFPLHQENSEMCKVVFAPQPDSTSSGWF
T1 sequence (P07237 18-508 partner): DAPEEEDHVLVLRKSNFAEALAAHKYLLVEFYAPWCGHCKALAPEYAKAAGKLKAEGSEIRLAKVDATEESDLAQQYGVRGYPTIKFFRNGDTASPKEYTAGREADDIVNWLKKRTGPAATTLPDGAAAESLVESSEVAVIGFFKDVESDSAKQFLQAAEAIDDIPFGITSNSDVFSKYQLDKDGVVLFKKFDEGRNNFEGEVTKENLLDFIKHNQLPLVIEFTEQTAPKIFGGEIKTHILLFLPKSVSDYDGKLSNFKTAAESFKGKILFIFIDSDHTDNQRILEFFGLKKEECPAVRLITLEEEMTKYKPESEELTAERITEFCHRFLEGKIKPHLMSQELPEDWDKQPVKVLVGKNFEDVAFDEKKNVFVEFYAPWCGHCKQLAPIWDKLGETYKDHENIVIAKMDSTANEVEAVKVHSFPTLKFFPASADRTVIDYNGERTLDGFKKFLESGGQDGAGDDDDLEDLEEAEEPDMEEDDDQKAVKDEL

SMILES	IC50
COC(=O)c1cc(Cl)c(OC(=O)CCCc2ccc(NC(=O)c3ccc(C)nc3-c3ccc(C(F)(F)F)cc3)c(C(=O)N(C)C)c2)c(OC)c1 [Compound 1-36, 3-chloro-4-[4-(3-dimethylcarbamoyl-4-{[6-methyl-2-(4-trifluoromethylphenyl)pyridine-3-carbonyl]amino}phenyl)butyryloxy]-5-methoxybenzoic acid methyl ester]	< 10 nM
CN(C)C(=O)c1cc(CCC(=O)Oc2ccccc2)ccc1NC(=O)c1ccccc1-c1ccc(C(F)(F)F)cc1 [Compound 1-1, 3-{3-dimethylcarbamoyl-4-[(4′-trifluoromethylbiphenyl-2-carbonyl)amino]phenyl}propionic acid phenyl ester]	10 to 100 nM
COC(=O)c1ccc(OC(=O)C2CCN(c3ccc(NC(=O)c4ccccc4-c4ccc(C(F)(F)F)cc4)c(C(=O)N(C)C)c3)CC2)c(F)c1 [Compound 3-2, 1-{3-dimethylcarbamoyl-4-[(4′-trifluoromethylbiphenyl-2-carbonyl)amino]phenyl}piperidine-4-carboxylic acid 2-fluoro-4-methoxycarbonylphenyl ester]	10 to 100 nM
COC(=O)c1cc(OC)c(OC(=O)CCCc2ccc(NC(=O)c3ccc(C)nc3-c3ccc(C(F)(F)F)cc3)c(C(=O)N(C)C)c2)c(C(=O)OC)c1 [Compound 1-53, 4-[4-(3-dimethylcarbamoyl-4-{[6-methyl-2-(4-trifluoromethylphenyl)pyridine-3-carbonyl]amino}phenyl)butyryloxy]-5-methoxyisophthalic acid dimethyl ester]	< 10 nM
CN(C)C(=O)c1cc(CCCC(=O)Oc2ccc(C(=O)OCCCOCc3ccccc3)cc2)ccc1NC(=O)c1ccccc1-c1ccc(C(F)(F)F)cc1 [Compound 1-90, 4-[4-(3-dimethylcarbamoyl-4-{(4′-trifluoromethylbiphenyl-2-carbonyl)amino}phenyl)butyryloxy]benzoic acid 3-benzyloxypropyl ester]	< 10 nM
CCc1cc(C(=O)OC)cc(C(=O)OC)c1OC(=O)CCCc1ccc(NC(=O)c2ccc(C)nc2-c2ccc(C(F)(F)F)cc2)c(C(=O)N(C)C)c1 [Compound 1-51, 4-[4-(3-dimethylcarbamoyl-4-{[6-methyl-2-(4-trifluoromethylphenyl)pyridine-3-carbonyl]amino}phenyl)butyryloxy]-5-ethylisophthalic acid dimethyl ester]	< 10 nM

Further lines, results first:

IC50	SMILES
< 10 nM	COC(=O)c1ccc(OC(=O)CCCc2ccc(NC(=O)c3ccccc3-c3ccc(C(F)(F)F)cc3)c(C(=O)N(C)C)c2)cc1 [Compound 1-5]
< 10 nM	CC(C)OC(=O)c1ccc(OC(=O)CCCc2ccc(NC(=O)c3ccncc3-c3ccc(C(F)(F)F)cc3)c(C(=O)N(C)C)c2)cc1 [Compound 1-29, 4-[4-(3-dimethylcarbamoyl-4-{[3-(4-trifluoromethylphenyl)pyridine-4-carbonyl]amino}phenyl)butyryloxy]benzoic acid isopropyl ester]
< 10 nM	CC(=O)NCCOC(=O)c1ccc(OC(=O)CCCc2ccc(NC(=O)c3ccccc3-c3ccc(C(F)(F)F)cc3)c(C(=O)N(C)C)c2)cc1 [Compound 1-77, 4-[4-(3-dimethylcarbamoyl-4-{(4′-trifluoromethylbiphenyl-2-carbonyl)amino}phenyl)butyryloxy]benzoic acid 2-acetylaminoethyl ester]
10 to 100 nM	COC(=O)c1ccc(OC(=O)CCCc2ccc(NC(=O)c3ccccc3-c3ccc(C(F)(F)F)cn3)c(C(=O)N(C)C)c2)cc1 [Compound 1-19, 4-(4-{3-dimethylcarbamoyl-4-[2-(5-trifluoromethylpyridin-2-yl)benzoylamino]phenyl}butyryloxy)benzoic acid methyl ester]
10 to 100 nM	COC(=O)c1ccc(OC(=O)CCCc2ccc(NC(=O)c3ccccc3-c3ccc(C(F)(F)F)cc3)c(C(=O)N(C)C)c2)cc1OC [Compound 1-17, 4-(4-{3-dimethylcarbamoyl-4-[(4′-trifluoromethylbiphenyl-2-carbonyl)amino]phenyl}butyryloxy)-2-methoxybenzoic acid methyl ester]
